How the values were obtained:
[1] = system: Phorbol Myristate Acetate (PMA) Induced Topical Inflammation of the Mouse Ear; assay: Mouse Ear Anti-Inflammatory Assay (PMA, topical); format: in vivo; conditions: for Ear Weight Mean ± S.E.M.: PMA 1.5 ug
Experimental: a. Mouse Ear Anti-Inflammatory Assay
Test compound and phorbol myristate acetate (PMA) are topically applied simultaneously to the pinnae of the ears of mice. Three hours twenty minutes after application, mice are sacrificed, ears removed and standard sized bores taken. Edema (inflammation) is measured as the difference in weight between control and treated ears.
The vheicle or carrier for the compounds used in the inflammatory and analgesic assays was as follows; For the mouse ear inflammatory assay, the vehicle was acetone. Controls received 25 microliters of acetone. Test compounds were applied to the experimental animals in 25 microliter volumes. For the sperm motility and fertilized sea urchin egg assays, the compounds were dissolved in 10 microliters undenatured ethanol.

[2] = system: Intraperitoneally Administered Phenylquinone; assay: Phenylquinone Assay for Analgesia (writhing); format: in vivo, mice; conditions: for Mean No. Responses ± S.E.M.: phenylquinone 2.0 mg/kg
Experimental: d. Phenylquinone Assay for Analgesia
Test compound is injected subcutaneously into mice. After 30 minutes, phenylquinone is injected intraperitoneally to cause pain as indicated by writhing.
Test compound was administered subcutaneously in sesame oil at concentrations up to 5 mg per ml depending on the test compound dosage protocol. The highest dose was 50 mg per Kg. Control groups received sesame oil subcutaneously.

[3] = Toxicity of single intraperitoneal doses; format: in vivo, female B6D2F1 mice
Experimental: The toxicity of single intraperitoneal (ip) doses of Compound I in female B6D2F1 mice were evaluated. Doses of up to 150 mg/kg produced no lethality but signs of CNS toxicity were evident at doses greater than or equal to 77 mg/kg.

B16 melanoma = assay: Activity in mice bearing ip B16 melanoma; format: in vivo, female B6D2F1 mice
Experimental: Compound I was also evaluated for activity against solid tumors as follows:
One-half ml of a 10 percent (v:v) brei of tumor cells prepared from solid B16 melanoma or M5076 reticulum cell sarcoma was implanted ip in female B6D2F1 mice which were randomized to treatment groups of 8 animals each. Treatment was initiated 24 hours after tumer inoculation and was continued daily for 10 days (cisplatin was administered q4Dx4 on Days 1, 5, 9 and 13). Mice were monitored daily for 60 days, and the median day of death was determined compared to three groups of untreated controls to provide percent increase in lifespan (ILS). ILS values of greater than or equal to 50 percent represent biologically significant antitumor effects. Cisplatin was curative in M5076 with 6/8 tumor-free survivors on Day 60 at the top dose level.

[4] = system: highly metastatic subline (F10) of B16 melanoma; assay: Antiproliferative effects on tumor cells growing in tissue culture; format: cell-based; conditions: continuous exposure; read-out: concentration that inhibited proliferation by 50 percent
Experimental: Compound I was also tested for antiproliferative effects on tumor cells growing in tissue culture.

[5] = Side effects, subcutaneous administration to mice; format: in vivo
Text: The following side effect of pseudopterosin A (Compound I) was observed.

[6] = system: PMA induced swelling of the mouse ear; assay: Anti-Inflammatory Assay (systemic administration); format: in vivo, male Swiss Webster mice
Experimental: Anti-Inflammatory Assay (systemic administration)
2 ug PMA was applied in 25 ul of acetone to the inner surface of the left ear of male Swiss Webster mice (4 to 6 weeks old), the right ear is treated with acetone only. […] 200 minutes after PMA treatment, the mice were killed by cervical dislocation and both ears were cut off, punched with a #4 cork borer and weighed. The swelling induced by PMA was calculated as the increase in the weight of the left ear minus the right ear. The percent inhibition of edema was calculated as control-drug/control×100. […] ED50 values were estimated by the method of Litchfield and Wilcoxon.

[7] = system: PMA induced swelling of the mouse ear; assay: Anti-Inflammatory Assay (topical administration); format: in vivo, mice
Experimental: Anti-Inflammatory (topical administration)
2 ug PMA was applied in 25 ul of acetone of the inner surface of the left ear, the right ear is treated with solvent only. […] 200 minutes after PMA treatment, the mice were killed by cervical dislocation and both ears were cut off, punched with a #4 cork borer and weighed. The swelling induced by PMA was calculated as the mean increase in the weight of the left ear minus the right ear. The pecent inhibition of edema was calculated as control-drug/control×100. […] ED50 values were estimated by the method of Litchfield and Wilcoxon.

[8] = 12.5 mg/kg to 50 mg/kg subcutaneously

## CC(C)=C[C@H]1C[C@H](C)[C@H]2CC[C@H](C)c3c(O[C@@H]4OC[C@@H](O)[C@H](O)[C@H]4O)c(O)c(C)c1c32 [Compound I, pseudopterosin A]
[1]; 50 microgram
  decrease in edema: 69%
[1]; 6.25 ug/ear
  Ear Weight Mean ± S.E.M.: 16.78 ± 0.91 mg
[1]; 12.5 ug/ear
  Ear Weight Mean ± S.E.M.: 14.99 ± 0.6 mg
[1]; 25.0 ug/ear
  Ear Weight Mean ± S.E.M.: 13.18 ± 0.53 mg
[1]; 50.0 ug/ear
  Ear Weight Mean ± S.E.M.: 12.47 ± 0.46 mg
[1]; 100.0 ug/ear
  Ear Weight Mean ± S.E.M.: 11.70 ± 0.37 mg
[1]; summary
  Anti-inflammatory Activity: Active
[2]; 3.1 mg/kg
  Mean No. Responses ± S.E.M.: 8.55 ± 1.38
[2]; 6.3 mg/kg
  Mean No. Responses ± S.E.M.: 5.87 ± 1.24
[2]; 12.5 mg/kg
  Mean No. Responses ± S.E.M.: 5.87 ± 0.77
[2]; 25.0 mg/kg
  Mean No. Responses ± S.E.M.: 1.80 ± 1.31
[2]; 50.0 mg/kg
  Mean No. Responses ± S.E.M.: 0
[2]; mouse, in vivo
  analgesia against chemically induced pain: provides analgesia
[2]; summary
  Analgesic Activity: Active
[3]; single ip dose
  dose at which signs of CNS toxicity were evident: greater than or equal to 77 mg/kg
[3]; single ip doses >= 77 mg/kg
  Symptoms of CNS toxicity: hypersensitivity to external stimuli and shivering
[3]; single ip doses of up to 150 mg/kg
  lethality: no lethality
B16 melanoma; 6.48 mg/kg ip
  Increase to Lifespan: -2%
  Median Survival Time: 21.5 days
  Weight Change on Day 9: +1.2 gm
B16 melanoma; 10.8 mg/kg ip
  Increase to Lifespan: -7%
  Median Survival Time: 20.5 days
  Weight Change on Day 9: +1.0 gm
B16 melanoma; 18 mg/kg ip
  Increase to Lifespan: -2%
  Median Survival Time: 21.5 days
  Weight Change on Day 9: +0.9 gm
B16 melanoma; 30 mg/kg ip
  Increase to Lifespan: 11%
  Median Survival Time: 24.5 days
  Weight Change on Day 9: +0.5 gm
B16 melanoma; 50 mg/kg ip
  Increase to Lifespan: -4%
  Median Survival Time: 21 days
  Weight Change on Day 9: -0.4 gm
B16 melanoma; B16 melanoma
  antitumor activity: did not demonstrate significant antitumor activity
[4]
  IC50: 42 µM
[5]; [8]
  duration of side effects: last up to one hour
  onset of side effects: within a few minutes of administration
[5]; 12.5 mg/kg to 50 mg/kg subcutaneously, sesame oil
  side effects: central nervous system excitation, brief involuntary muscle contraction of the hind limbs resulting in lateral jumping movements, excessive preening of wound sites, and flushing of the tail and ears
[5]; doses as low as 3 mg/kg
  side effects: slight to moderate central nervous system excitation
[6]; 6.25 mg/kg
  % Inhibition (edema): 0%
[6]; 12.5 mg/kg
  % Inhibition (edema): 24.4%
[6]; 25 mg/kg
  % Inhibition (edema): 43.8%
[6]; 50 mg/kg
  % Inhibition (edema): 46.5%
[6]; 100 mg/kg
  % Inhibition (edema): 90.4%
[7]; 6.25 ug/ear
  % Inhibition (edema): 28.8%
[7]; 12.5 ug/ear
  % Inhibition (edema): 78.3%
[7]; 25 ug/ear
  % Inhibition (edema): 89.5%
[7]; 50 ug/ear
  % Inhibition (edema): 96.0%
[7]; 50% inhibition of inflammation, n = 10 mice/dose
  ED50: 8.3 ug/ear

— patent US4849410A, “Pseudopterosin and synthetic derivatives thereof” (The Regents of the University of California, priority 1987, dated 1989)
